Biological target: T1, Par1 (thrombin) receptor (Homo sapiens, UniProt P25116)
T1 construct: endogenous in cells; host or cells: platelets (platelet-rich plasma; washed platelets from individual donors)
T1 sequence (P25116 22-425): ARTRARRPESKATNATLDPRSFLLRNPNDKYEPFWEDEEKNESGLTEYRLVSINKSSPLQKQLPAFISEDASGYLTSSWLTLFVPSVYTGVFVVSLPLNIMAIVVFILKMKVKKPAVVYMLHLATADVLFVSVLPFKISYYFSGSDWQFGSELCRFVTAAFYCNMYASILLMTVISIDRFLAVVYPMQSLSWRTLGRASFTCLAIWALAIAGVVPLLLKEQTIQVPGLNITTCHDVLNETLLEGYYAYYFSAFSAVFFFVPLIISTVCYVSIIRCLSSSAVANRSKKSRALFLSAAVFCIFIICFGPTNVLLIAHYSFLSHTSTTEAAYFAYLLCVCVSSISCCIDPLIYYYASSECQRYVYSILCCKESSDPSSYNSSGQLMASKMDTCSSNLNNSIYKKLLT
Assay: SFLLRN-mediated granule secretion, platelet-rich plasma, luciferin-luciferase ATP readout (primary assay)
Assay type: cell-based
Conditions: Table D; read-out: Activity (measured IC50 category)
Description: The compounds were tested in two independent IC50 determination experiments using the primary assay measuring SFLLRN-mediated granule secretion. For this assay, platelet-rich plasma is treated with putative inhibitors prior to activation by the SFLLRN peptide, which targets the Par1 (thrombin) receptor. Upon activation, platelets secrete dense granules, which are concentrated with ATP. Platelet activation and possible inhibition are monitored by a luciferin-luciferase assay (CellTiter-Glo without lysis reagent) to measure the ATP secreted from activated platelets. Luminescence measurements are made using a plate reader (Envision, PerkinElmer) capable of detecting luminescence.
With CCC(=O)Nc1cccc(NC(=O)c2ccccc2Br)c1 the IC50 was 1 to 5 µM.
Work on O=C(Nc1ccccc1)c1ccccc1Br yielded an IC50 of 1 to 5 µM.
CC(=O)Nc1cccc(NC(=O)c2ccccc2Cl)c1 gave an IC50 of over 10 µM.
For CC(=O)Nc1ccc(NC(=O)c2ccccc2Br)cc1, the IC50 was over 10 µM.
For CCCC(=O)Nc1cccc(NC(=O)c2ccc(C(F)(F)F)cc2)c1, the IC50 was over 10 µM.
CCCC(=O)Nc1cccc(NC(=O)c2ccc(OC)cc2)c1 showed an IC50 of over 10 µM.
CCCC(=O)Nc1cccc(NC(=O)c2ccc(S(C)(=O)=O)cc2)c1 showed an IC50 of over 10 µM.
CCCC(=O)Nc1cccc(NC(=O)c2ccccc2C)c1 showed an IC50 of 0.001 to 1 µM.
Compound CCCC(=O)Nc1cccc(NC(=O)c2ccccc2F)c1 has an IC50 of 0.001 to 1 µM.
With CCCC(=O)Nc1cccc(NC(=O)c2ccccc2Cl)c1 the IC50 was 1 to 5 µM.
In the case of CCCC(=O)Nc1cccc(NC(=O)c2cccnc2)c1, the IC50 is reported as over 10 µM.
For CCCC(=O)Nc1cccc(NC(=O)c2cnc3ccccc3c2)c1, the IC50 was over 10 µM.
In the case of CCCC(=O)Nc1cccc(NC(=O)c2ccco2)c1, the IC50 is reported as over 10 µM.
CCCC(=O)Nc1cccc(NC(=O)c2ccc(C)cc2)c1 showed an IC50 of over 10 µM.
With CCCC(=O)Nc1cccc(NC(=O)c2cccc(S(C)(=O)=O)c2)c1 the IC50 was over 10 µM.
O=C(Nc1cccc(NC(=O)C2CCCC2)c1)c1ccccc1Br showed an IC50 of 0.001 to 1 µM.
Compound O=C(Nc1cccc(NC(=O)c2ccccc2Br)c1)c1ccccc1 has an IC50 of over 10 µM.
In the case of CCCC(=O)Nc1ccnc(NC(=O)c2ccccc2Br)c1, the IC50 is reported as over 10 µM.
Compound O=C(Nc1cc(NC(=O)C2CCCC2)ccn1)c1ccccc1Br has an IC50 of over 10 µM.
In the case of O=C(Nc1ccnc(NC(=O)c2ccccc2Br)c1)c1ccccc1, the IC50 is reported as over 10 µM.
Work on CCCC(=O)Nc1cccc(N(C)C(=O)c2ccccc2Br)c1 yielded an IC50 of over 10 µM.
In the case of CN(C(=O)c1ccccc1Br)c1cccc(NC(=O)C2CCCC2)c1, the IC50 is reported as over 10 µM.
Compound CCCC(=O)Nc1ccc(NC(=O)c2ccccc2Br)cc1 has an IC50 of over 10 µM.
With CCCC(=O)Nc1cccc(NC(=O)c2ccccc2C(F)(F)F)c1 the IC50 was 1 to 5 µM.
CCCC(=O)Nc1cccc(NC(=O)c2ccccc2OC(F)(F)F)c1 gave an IC50 of 0.001 to 1 µM.
Compound CCCC(=O)Nc1cccc(NC(=O)c2ccccc2C(=O)N(C)C)c1 has an IC50 of over 10 µM.
CCCC(=O)Nc1cccc(NC(=O)c2ccccc2-c2ccccc2)c1 showed an IC50 of over 10 µM.
Work on CCCC(=O)Nc1cccc(NC(=O)c2ccccc2CC)c1 yielded an IC50 of 0.001 to 1 µM.
CCCC(=O)Nc1cccc(NC(=O)c2c(C)cccc2C)c1 showed an IC50 of 1 to 5 µM.
Work on CCCC(=O)N(C)c1cccc(NC(=O)c2ccccc2Br)c1 yielded an IC50 of over 10 µM.
In the case of CCOC(=O)Nc1cccc(NC(=O)c2ccccc2Br)c1, the IC50 is reported as 1 to 5 µM.
Work on Cc1ccccc1C(=O)Nc1cccc(NC(=O)CC(C)C)c1 yielded an IC50 of 1 to 5 µM.
Work on CCCC(=O)Nc1ccc(Cl)c(NC(=O)c2ccccc2C)c1 yielded an IC50 of over 10 µM.
Work on CCCC(=O)Nc1ccc(Cl)c(NC(=O)c2ccccc2Br)c1 yielded an IC50 of over 10 µM.
CCC(=O)Nc1cc(NC(=O)c2ccccc2C)ccc1C showed an IC50 of over 10 µM.
Work on CCCNC(=O)c1cccc(NC(=O)c2ccccc2Cl)c1 yielded an IC50 of 1 to 5 µM.
With CCCCNc1cccc(NC(=O)c2ccccc2Br)c1 the IC50 was 0.001 to 1 µM.
For CCCC(=O)Nc1cccc(NCc2ccccc2Br)c1, the IC50 was over 10 µM.
Work on CCCC(=O)Nc1cccc(NC(=O)c2ccccc2S(C)(=O)=O)c1 yielded an IC50 of over 10 µM.
Compound CCCC(=O)Nc1cccc(NC(=O)c2cc(C)ccc2Br)c1 has an IC50 of 0.001 to 1 µM.
Work on CCCC(=O)Nc1cccc(NC(=O)c2ccc(F)cc2Br)c1 yielded an IC50 of 0.001 to 1 µM.
Work on CCCC(=O)Nc1cccc(NC(=O)c2cc(F)ccc2Br)c1 yielded an IC50 of 0.001 to 1 µM.
For CCCC(=O)Nc1cccc(NC(=O)c2cc(Cl)ccc2Br)c1, the IC50 was 0.001 to 1 µM.
CCC(C)(C)C(=O)Nc1cccc(NC(=O)c2ccccc2Br)c1 gave an IC50 of over 10 µM.
CCCC(=O)Nc1cccc(NC(=O)c2cccc(Cl)c2Cl)c1 showed an IC50 of 1 to 5 µM.
For CCCC(=O)Nc1cccc(NC(=O)c2c(Cl)cccc2Br)c1, the IC50 was 1 to 5 µM.
For CCCC(=O)Nc1cccc(NC(=O)c2ccccc2Br)c1 [drawing 135], the IC50 was 0.001 to 1 µM.
With CC(C)CC(=O)Nc1cccc(NC(=O)c2ccccc2Br)c1 [drawing 174] the IC50 was 0.001 to 1 µM.

Tested on: Gα12 signaling downstream of PAR1
Assay: PAR1-mediated transmembrane resistance (TER) in MDCK cells overexpressing Gα12
Assay type: cell-based
Conditions: FIG. 3B
Description: (§1) This pattern of inhibition is consistent with that of an allosteric inhibitor. […] This observation raised the possibility that compound 1 blocks PAR1 signaling through Gαq (which mediates platelet aggregation downstream of PAR1), but not Gα12/13 (which mediates shape change downstream of PAR1). A previously identified PAR1 inhibitor, 3,5-difluoro aminoisoxazole (3,5-DFAI), inhibited both shape change and aggregation. Shape change that occurred in the presence of compound 1 was blocked by the Rho kinase inhibitor Y27632, confirming participation of Rho kinase downstream of Gα12/13 in compound-1-resistance shape change (FIG. 3A). […] PAR1-mediated decrease in TER in these cells is dependent on Gα12. […] In contrast, 3,5-DFAI inhibited SFLLRN-mediated decrease in TER (FIG. 3B) and compound 1 inhibited Gαq-mediated Ca^2+ flux in these MDCK cells (FIG. 3C).
With Nc1c(F)noc1F [3,5-DFAI, 3,5-difluoro aminoisoxazole] the “PAR1-mediated (SFLLRN) change in TER” value was “inhibited”.

Tested on: thrombus formation
Assay: Thrombus formation following laser-induced injury of the cremaster arteriole in mice
Assay type: in vivo
Conditions: single infusion of 5 mg/kg, FIG. 5A
Description: PAR1 is the thrombin receptor on human platelets and serves an important function in mediating thrombus formation. We tested compound 1 to determine whether it inhibited thrombus formation following laser-induced injury of the cremaster arteriole in mice. The dominant PAR receptor on mouse platelets is PAR4. However, since compound 1 acts at a non-orthosteric site and mouse PAR4 differs from human PAR4, we reasoned that compound 1 may be able to block mouse PAR4. […] When infused into mice at a concentration of 5 mg/kg, compound 1 inhibited platelet accumulation during thrombus formation by >90% (FIG. 4B). Infusion of 5 mg/kg also impaired fibrin generation during thrombus formation (FIG. 4C). Thus, compound 1 blocks both cellular- and coagulation protein-mediated arms of thrombus formation. […] The compound was therefore infused every 30 minutes during the course of these experiments. The short half-life of compound 1 in vivo may be useful in scenarios in which anticoagulation is only required for a short period of time or when anticoagulation needs to be reversed quickly, such as anticoagulation prior to invasive procedures or surgery.
(§2) Since there are also situations in which longer term anticoagulation is desired, we performed further studies in the thrombus formation model to assess analogs of compound 1 that may have a more long-lived effect. […] This instability in mouse plasma may have contributed to its short half-life of efficacy in vivo.
For CC(C)CC(=O)Nc1cccc(NC(=O)c2ccccc2Br)c1 [2-bromo-N-(3-(3-methylbutanamido)phenyl)benzamide], the “impairment of platelet accumulation during thrombus formation” value was over 90%.

Same assay, conditions: single infusion of 5 mg/kg, FIG. 5B
With CC(C)CC(=O)Nc1cccc(NC(=O)c2ccccc2Br)c1 [2-bromo-N-(3-(3-methylbutanamido)phenyl)benzamide] the “impairment of fibrin generation during thrombus formation” value was over 90%.

Tested on: not listed separately
Assay: Stability in mouse plasma
Assay type: in vitro ADME
Conditions: not given
Description: as §2
In the case of CC(C)CC(=O)Nc1cccc(NC(=O)c2ccccc2Br)c1 [2-bromo-N-(3-(3-methylbutanamido)phenyl)benzamide], the “remaining after 5 hour incubation in mouse plasma” value is reported as 64.6%.

Biological target: T2, PAR1 (Homo sapiens, UniProt P25116)
T2 sequence (P25116 22-425): T1 sequence (P25116 22-425)
Assay: PAR1-mediated platelet aggregation and shape change
Assay type: cell-based
Set-up: endogenous in cells; host or cells: platelets (platelet-rich plasma; washed platelets from individual donors)
Conditions: FIG. 3A
Description: as §1
With Nc1c(F)noc1F [3,5-DFAI, 3,5-difluoro aminoisoxazole] the PAR1-mediated platelet aggregation was “inhibited” and the “PAR1-mediated platelet shape change” value was “inhibited”.

Same assay, conditions: in the presence of compound 1; FIG. 3A
For C[C@@H](N)[C@H]1CC[C@H](C(=O)Nc2ccncc2)CC1 [Compound Y27632], the “shape change that occurred in the presence of compound 1” value was “blocked”.

Reference: patent US9422262B2, “Compounds and methods for treating diseases mediated by protease activated receptors” (The Broad Institute, Inc., priority 2010, dated 2016)
